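96-well plates; 48 h exposure; 5 concentrations. Endpoints by linear interpolation between flanking doses. Not reached: highest tested concentration assigned. GI50 marks 50% less growth.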 Calls of active or inactive are those of the source. Cut-off read from the data, not from the text of the source: active = GI50 up to about 1.1 µM and inactive = higher.
Key:
Experiment in all cases: NCI-60 cell line screen, 48 h
SNB-78 = tested on: SNB-78
XF498 = tested on: XF498
KM-20L2 = tested on: KM-20L2
M19-MEL = tested on: M19-MEL
HOP-18 = tested on: HOP-18
DMS-114 = tested on: DMS-114
RXF 631 = tested on: RXF 631
DMS-273 = tested on: DMS-273
DLD-1 = tested on: DLD-1

Row | SMILES | GI50 (SNB-78) | GI50 (XF498) | GI50 (KM-20L2) | GI50 (M19-MEL) | GI50 (HOP-18) | GI50 (DMS-114) | GI50 (RXF 631) | GI50 (DMS-273) | GI50 (DLD-1)
1 | CC(=O)CC(=O)NC=O | > 100 µM (inactive) | > 100 µM (inactive) | > 100 µM (inactive) | > 100 µM (inactive) | > 100 µM (inactive) | > 100 µM (inactive) | > 100 µM (inactive) | > 100 µM (inactive) | > 100 µM (inactive)
2 | CCCCCCCCCCCCCP(=O)(NCC(N)=O)OCC (configuration not stated) | 20 µM (inactive) | 19.1 µM (inactive) | 17.4 µM (inactive) | 19.7 µM (inactive) | 2.38 µM (inactive) | 15.2 µM (inactive) | 18.9 µM (inactive) | – | 17.1 µM (inactive)
3 | CCC(C)CC(C)CC(C)/C=C(\C)C1=C(C)CC(C)(O)O1 (configuration not stated) | 86.9 µM (inactive) | – | – | > 100 µM (inactive) | > 100 µM (inactive) | 64.1 µM (inactive) | > 100 µM (inactive) | 98.4 µM (inactive) | > 100 µM (inactive)
4 | O=C(NCCCCCCCCNC(=O)c1cccc2ccccc12)c1cccc2ccccc12 | 13.4 µM (inactive) | 4.44 µM (inactive) | > 100 µM (inactive) | > 86.1 µM (inactive) | 21 µM (inactive) | 42.6 µM (inactive) | 13.9 µM (inactive) | 52.8 µM (inactive) | > 100 µM (inactive)
5 | CCOC(=O)C(C)(C)Oc1ccc2c(-c3ccc(Cl)cc3)cc(=O)oc2c1 | – | – | > 100 µM (inactive) | > 100 µM (inactive) | – | > 100 µM (inactive) | > 100 µM (inactive) | > 100 µM (inactive) | > 100 µM (inactive)
6 | Cc1cc(Cl)ccc1NC1=NC(=O)C(CC(=O)Nc2ccc([N+](=O)[O-])cc2[N+](=O)[O-])S1 (configuration not stated) | 28.6 µM (inactive) | 20.6 µM (inactive) | 31.1 µM (inactive) | 25.9 µM (inactive) | – | 19.9 µM (inactive) | – | 30.5 µM (inactive) | 34.1 µM (inactive)
7 | CN(C)c1ccc(/C=C(/NC(=O)c2ccccc2)c2nc3cc(Cl)ccc3[nH]2)cc1 | 63.1 µM (inactive) | – | 27.7 µM (inactive) | 27.5 µM (inactive) | 2.42 µM (inactive) | – | – | 32.4 µM (inactive) | 34.4 µM (inactive)
8 | CC(=O)OC(C)(C)/C=C/C(=O)[C@](C)(O)[C@H]1[C@H](O)C[C@@]2(C)[C@@H]3CC=C4[C@@H](C=C(O)C(=O)C4(C)C)[C@]3(C)C(=O)C[C@]12C [CUCURBITACIN E] | 0.0914 µM (active) | 0.0356 µM (active) | 0.0197 µM (active) | 0.0807 µM (active) | 0.06 µM (active) | 0.0715 µM (active) | 0.0406 µM (active) | 0.0241 µM (active) | 0.0302 µM (active)
9 | C/C(=C\c1ccccc1)C(=O)c1c(C)cc(C)cc1C | – | > 100 µM (inactive) | > 100 µM (inactive) | > 100 µM (inactive) | > 100 µM (inactive) | > 100 µM (inactive) | – | – | > 100 µM (inactive)
10 | CCC1(O)C(=O)OCc2c1cc1n(c2=O)Cc2cc3ccc(CO)cc3nc2-1 (configuration not stated) | – | 1.29 µM (inactive) | 13.5 µM (inactive) | 3.71 µM (inactive) | 5.46 µM (inactive) | 1.82 µM (inactive) | 3.31 µM (inactive) | 1.12 µM (active) | 51.3 µM (inactive)
11 | C=C(CN(C)C)C(=O)c1ccccc1OC | 25.6 µM (inactive) | 17.9 µM (inactive) | 26.2 µM (inactive) | 16.3 µM (inactive) | 6.08 µM (inactive) | 21.1 µM (inactive) | – | 17.2 µM (inactive) | 4.49 µM (inactive)
12 | C=C[C@]1(C)CC(O)C2C(=C)C(=O)OC2[C@H]1C(=C)C=O (some centres not stated) | 3.56 µM (inactive) | – | 5.47 µM (inactive) | 2.52 µM (inactive) | 5.41 µM (inactive) | 5.73 µM (inactive) | – | – | 2.08 µM (inactive)
13 | COC1C2c3cc4c(cc3CC(C#N)(c3ccccc32)N1C(=O)c1ccccc1)OCO4 (configuration not stated) | > 100 µM (inactive) | > 100 µM (inactive) | > 100 µM (inactive) | – | > 100 µM (inactive) | 70.6 µM (inactive) | > 100 µM (inactive) | > 100 µM (inactive) | > 100 µM (inactive)

Reference: ChEMBL document CHEMBL1201862, “PubChem BioAssay data set” (2004)
